Test results as given in PMC3948684, “Approaches to Improve the Oral Bioavailability and Effects of Novel Anticancer Drugs Berberine and Betulinic Acid” (PLoS ONE, 2014).

Key:
[1] = system: H1650 colonies; assay: Clonogenic assay (colony formation); assay type: cell-based, Human; conditions: BBR at 1, 3 and 10 µM
Source text: Supplementary file pone.0089919.s002.tif: Figure S2 Effect of BBR on colony formation. A) Effects of BBR free drug and BBR-SD on spheroid number B) on spheroid sizes. Representative clonogenic images of H1650 colonies form C) control and D) BBR free drug and BBR-SD treated groups. Colonies were stained with crystal violet staining for better visibility. Each data point is represented as mean±sem (n = 6–10). **p<0.01 and ***p<0.001 Vs respective untreated control groups. (TIF) Click here for additional data file.

[2] = system: survivin; assay: Western blot of orthotopic lung tumor lysates; assay type: in vivo, athymic Nu/nu mice; conditions: A549 tumors; densitometry
Procedure: (§1) Western blot analysis was performed to study the expression of Bcl-2, cleaved caspase 3, survivin, cyclin D1, p53, MMP-9, HIF-1α. The detailed procedure was given as Data S1.
(§2) B) Western blot analysis: western blot analysis was performed to study the expression of Bcl-2, cleaved caspase 3, survivin, cyclin D1, p53, MMP-9, HIF-1α. The detailed procedure was given in supplementary data. Protein was extracted from tumor tissues collected from untreated control and drug treated animals using RIPA lysis buffer (50mM Tris-HCL, pH 8.0, with 150 mM sodium chloride, 1.0% Igepal CA-630 (NP-40), 0.5% sodium deoxychlorate, and 0.1% sodium dodecyl sulfate) with protease inhibitor and 500 mM phenylmethylsulfonyl fluoride. Protein concentration was measured using BCA Protein Assay Reagent Kit (PIERCE, Rockford, IL). Equal amounts of supernatant protein (50 μg) was denatured by boiling for 5 min in SDS sample buffer, separated by 10% SDS-PAGE, transferred to nitrocellulose membranes for immunoblotting. Membranes were blocked with 5% skim milk in Tris-buffered saline with Tween 20 [10mM Tris-HCL (pH 7.6), 150 mM Nacl, and 0.5% Tween 20] and probed with antibodies against Bcl-2 (1:1000), cleaved caspase 3 (1:500), survivin (1:1000), cyclin D1(1:1000), p53 (1:1000), MMP-9 (1:1000), HIF-1α (1:1000) and β-actin (1:1000). Horseradish peroxidase-conjugated secondary antibodies (Santa Cruz Biotechnology, Santa Cruz, CA) were used. Proteins were visualized using enhanced chemiluminescent solution (Pierce, Rockford, IL) and exposed to Kodak X-OMAT AR autoradiography film (Eastman Kodak, Rochester, NY).

[3] = system: p53; assay: Western blot of orthotopic lung tumor lysates; assay type: in vivo, athymic Nu/nu mice; conditions: A549 tumors; densitometry
Procedure: as §1, §2

[4] = system: HIF-1α; assay: Western blot of orthotopic lung tumor lysates; assay type: in vivo, athymic Nu/nu mice; conditions: A549 tumors
Procedure: as §1, §2

[5] = system: cyclin D1; assay: Western blot of orthotopic lung tumor lysates; assay type: in vivo, athymic Nu/nu mice; conditions: A549 tumors; densitometry
Procedure: as §1, §2

[6] = system: Bcl-2; assay: Western blot of orthotopic lung tumor lysates; assay type: in vivo, athymic Nu/nu mice; conditions: A549 tumors; densitometry
Procedure: as §1, §2

[7] = system: A549 orthotopic lung tumors; assay: A549 orthotopic lung cancer model; assay type: in vivo, athymic Nu/nu mice; conditions: 100 mg/kg orally daily for 3 weeks
Procedure: A549 cells were grown in F12K Medium containing 10% FBS and standard antibiotic mix at 5% CO2 and 37°C. For orthotopic lung tumor model, mice were anesthetized with Isoflurane and a 5 mm skin incision was made to the left chest, 5 mm below the scapula. Hamilton syringes (1 ml) with 28-gauge hypodermic needles were used to inject the cell inoculums through the sixth intercostal space into the left lung. The needle was quickly advanced to a depth of 3 mm and quickly removed after the injection of the A549 cells (2 million/mouse) suspended in 100 µL PBS (pH 7.4) into the lung parenchyma. For metastatic lung tumor models H1650 cells (2 million in 100 µL PBS) were intravenously administered to mice via tail vein. […] Only cell suspensions of >95% viability as determined by tryphan blue exclusion were used. Wounds from the incisions were closed with surgical skin clips. […] Drug treatment was started 2 weeks after the tumor cell implantation. BBR free drug or SD formulation was given orally at the dose of 100 mg/kg daily for 3 weeks. […] Body weights were monitored throughout the study. Animal survival rates were recorded during the study. The lung weights and tumor volumes were used for assessment of therapeutic activity of the treatments. After sacrificing the animals lung weights and tumor nodules were recorded in metastatic tumor models.

[8] = system: H1650 cells; assay: In vitro cytotoxicity, crystal violet staining; assay type: cell-based; conditions: Homo sapiens, NCI-H1650; BBR, 72 h exposure
Procedure: (§3) NSCLC cells A549 and H1650 were plated in 96 well plates at 10,000 cells/well density. After 24 h, cells were treated with various concentrations of BBR and BA. DMSO (0.1%) treated cells were considered as control cells. After 72 h treatment, cells were fixed in 0.25% gultaraldehyde and stained with 0.05% crystal violet staining. Percent of cell viability or cell kill was calculated by considering DMSO treated control cells as 100% viable (zero % cell kill).

[9] = system: A549 cells; assay: In vitro cytotoxicity, crystal violet staining; assay type: cell-based; conditions: Homo sapiens, BBR, 72 h exposure
Procedure: as §3

[10] = Toxicity on chronic administration (body weights, H&E histopathology); conditions: 100 mg/kg for 3 weeks
Procedure: A549 cells were grown in F12K Medium containing 10% FBS and standard antibiotic mix at 5% CO2 and 37°C. For orthotopic lung tumor model, mice were anesthetized with Isoflurane and a 5 mm skin incision was made to the left chest, 5 mm below the scapula. Hamilton syringes (1 ml) with 28-gauge hypodermic needles were used to inject the cell inoculums through the sixth intercostal space into the left lung. The needle was quickly advanced to a depth of 3 mm and quickly removed after the injection of the A549 cells (2 million/mouse) suspended in 100 µL PBS (pH 7.4) into the lung parenchyma. For metastatic lung tumor models H1650 cells (2 million in 100 µL PBS) were intravenously administered to mice via tail vein. […] Wounds from the incisions were closed with surgical skin clips. […] Drug treatment was started 2 weeks after the tumor cell implantation. BBR free drug or SD formulation was given orally at the dose of 100 mg/kg daily for 3 weeks. […] Body weights were monitored throughout the study. Animal survival rates were recorded during the study. The lung weights and tumor volumes were used for assessment of therapeutic activity of the treatments. After sacrificing the animals lung weights and tumor nodules were recorded in metastatic tumor models.
Orthotopic lung tumors and mice small intestine segments (ileum) were processed for normal histopathological procedures and 5–10 µm sections were made. After deparaffinization and rehydration, sections were stained with Hematoxylin and Eosin for normal histological evaluation. Similarly, small intestine segments were processed and stained with H&E and visualized under normal microscope.

[11] = parameters: method as in PMID 16956957, PMID 20634337; conditions: oral ref 21, 22; cited from earlier work
[12] = parameters: method as in PMID 19283771; conditions: oral administration of 100 mg/kg in rats ref 24; cited from earlier work

## COc1ccc2cc3[n+](cc2c1OC)CCc1cc2c(cc1-3)OCO2.[Cl-] [BBR free drug, 5,6-dihydro-9,10-dimethoxy-benzo[g]-1,3-benzodioxolo[5,6-a]quinolizinium, chloride]
[1]
  number of colonies and colony sizes: significantly decreased
[2]
  survivin expression down regulated compared to control: 2.03 fold
[3]
  relative expression of p53 increased compared to untreated control: 2.51 fold
[4]
  HIF-1α expression: significantly down regulated
[5]
  cyclin D1 relative expression reduced compared to untreated control: 1.02 fold
[6]
  beta actin relative Bcl-2 expression reduced compared to untreated control: 2.79 fold
[7]
  decrease in tumor volumes compared to untreated control: 1.31 fold
  lung tumor weights: 385.77 ± 63.42 mg
  reduced tumor weights compared to control tumors: 1.40 fold
[8]
  IC50: 8.39 ± 1.03 µM
[9]
  IC50: 6.45 ± 0.46 µM
[10]
  H&E histopathology of small intestine (ileum): No visible toxicity
  body weight changes during treatment: no significant change
  signs of toxicity on chronic administration: did not result in any toxicity
[11]
  bioavailability: less than 1%
[12]
  Cmax: 4 ng/mL
